From PMC11456921 (RSC Advances, 2024) come the findings set out here.

For assay [1], the system named is HepG2 cells. Description: Apoptosis detection, annexin V-FITC/PI flow cytometry. In kind it is cell-based, human. The settings on record: HepG2, 9.5 μg mL^−1 (IC50), 24 h; DMSO control 1.18%. A general note: A flow cytometer gives signals particle by particle.
Assay [2] deals with HepG2 cells. The assay can be described thus: Cell cycle analysis by flow cytometry. The assay is classed as cell-based, human. The settings on record: HepG2, 9.5 μg mL^−1 (IC50), 24 h.
The target in the next assay is CDK2/cyclin A (Homo sapiens, UniProt P24941). In kind it is biochemical.
For assay [3], the system named is Vero normal African green monkey kidney cell line. Description: In vitro anti-proliferative assay, SRB method, normal Vero cells. In kind it is cell-based. The settings on record: single concentration 100 μg mL^−1, 48 h, mean ± SD.
The subject of assay [4] is HepG2 cells. Description: Reduced glutathione. The settings on record: HepG2, treated with IC50 for 48 h. The assay is classed as cell-based, human.
Assay [5] relates to HepG2 human hepatocellular carcinoma cell line. Description: In vitro anti-proliferative assay, SRB method, HepG2. In kind it is cell-based. In general terms: In SRB staining, fixed cells bind dye roughly in proportion to their protein.
The target of another assay is GSK3β (Homo sapiens, UniProt P49841). The assay is classed as biochemical.
Sequence of GSK3β (P49841 whole entry): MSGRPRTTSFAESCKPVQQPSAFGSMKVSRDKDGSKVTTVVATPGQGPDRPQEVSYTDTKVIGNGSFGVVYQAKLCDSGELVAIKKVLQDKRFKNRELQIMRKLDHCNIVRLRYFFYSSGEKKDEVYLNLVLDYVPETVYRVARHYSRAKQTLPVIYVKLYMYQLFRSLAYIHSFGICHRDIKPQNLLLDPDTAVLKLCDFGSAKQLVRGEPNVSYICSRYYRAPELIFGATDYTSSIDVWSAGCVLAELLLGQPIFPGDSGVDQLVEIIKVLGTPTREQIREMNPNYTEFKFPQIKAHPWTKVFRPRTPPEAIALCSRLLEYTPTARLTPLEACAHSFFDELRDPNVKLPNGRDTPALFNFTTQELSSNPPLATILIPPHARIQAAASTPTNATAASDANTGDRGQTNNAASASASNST
For assay [6], the system named is HepG2 cells. Description: Total nitrate/nitrite. The assay is classed as cell-based, human. The settings on record: HepG2, treated with IC50 for 48 h.
Assay [7] concerns HEp-2 human laryngeal carcinoma cell line. Description: In vitro anti-proliferative assay, SRB method, HEp-2. The settings on record: for IC50: Homo sapiens, HEp-2, 48 h, read-out: IC50 against HEp-2; for HEp-2 (% inhibition): single concentration 100 μg mL^−1, 48 h, SRB, mean ± SD. In kind it is cell-based.
Assay [8] relates to MCF-7 human breast carcinoma cell line. The assay can be described thus: In vitro anti-proliferative assay, sulforhodamine-B. The assay is classed as cell-based. The settings on record: single concentration 100 μg mL^−1, 48 h, SRB; mean ± SD.
Assay [9] deals with HEp-2 cells. The assay can be described thus: Reduced glutathione. The settings on record: HEp-2, treated with IC50 for 48 h. The assay is classed as cell-based, human.
The test system of assay [10] is HEp-2 cells. The assay can be described thus: Total nitrate/nitrite. In kind it is cell-based, human. As to conditions: HEp-2, treated with IC50 for 48 h.

pIC50: −log10 of the molar value. ≈ marks a conversion by molar mass, not a printed value.

As a reminder, the pIC50 is the negative decadic logarithm of the IC50, by convention in mol/L. By IC50 is commonly meant the point on the concentration scale where inhibition reaches its midpoint. Compound `C/C(=N\N=c1/[nH]c(C)c(/N=N/c2ccc(C)cc2)s1)c1ccccn1` [13a, (E)-4-Methyl-2-(((E)-1-(pyridin-2-yl)ethylidene)hydrazono)-5-((E)-p-tolyldiazenyl)-2,3-dihydrothiazole] gave a Necrotic cells in the assay on HepG2 cells [1] of 3.25%. Further, the “Cells in G0–G1 phase (%DIP G1)” value in the assay with HepG2 cells [2] stood at 59.62%. Further, the pIC50 at CDK2/cyclin A is 5.95; on GSK3β it was 6.47. Also, the “Stronger inhibitory activity against CDK2/cyclin A compared with roscovitine” value at CDK2/cyclin A (from IC50 values of Table 2) is given as 2.2 fold. Moreover, the “Vero (% inhibition)” value in [3] is recorded as 41.81 ± 2.3%. Moreover, in the assay with HepG2 cells [4], the “Reduction in GSH level compared to untreated cells” value is recorded as 33%. In addition, the IC50 in [5] (Homo sapiens, HepG2, 48 h, read-out: IC50 against HepG2) stood at 9.5 µg/mL (≈ 27.1 µM). Besides, the “HepG2 (% inhibition)” value in assay [5] (single concentration 100 μg mL^−1, 48 h, SRB, mean ± SD) is listed as 76.56 ± 1.3%. Moreover, the “Increase of NOx level compared to untreated cells” value in the assay on HepG2 cells [6] is 25%.

With `C/C(=N\NC(N)=S)c1ccccn1` [1a, (E)-2-(1-(pyridin-2-yl)ethylidene)hydrazine-1-carbothioamide], the negative logarithm of the IC50 (pIC50) is 4.78 against CDK2/cyclin A and 5.65 at GSK3β. At CDK2/cyclin A (from IC50 values of Table 2), the “Roscovitine inhibitory activity against CDK2/cyclin A relative to the compound” value was “more than 3.5 times”. The “GSK3β inhibitory activity compared with CHIR-99021” value at GSK3β (from IC50 values of Table 2) is reported as “the reference drug showing nearly six times its inhibitory activity”. In assay [7], the IC50 was 7.5 µg/mL (≈ 38.6 µM). Moreover, the “HEp-2 (% inhibition)” value in [7] is recorded as 79.91 ± 0.7%.

As to `CCN1C(=O)/C(=C\c2ccc(F)cc2)S/C1=N/N=C(\C)c1ccccn1` [9b, (E)-3-Ethyl-5-((E)-4-fluorobenzylidene)-2-(((E)-1-(pyridin-2-yl)ethylidene)hydrazono)thiazolidin-4-one], the “MCF-7 (% inhibition)” value in assay [8] was 70.58 ± 1.8%.

For `CC(=O)C1S/C(=N/N=C(\C)c2ccccn2)NC1=O` (stereo not shown) [8a, (E)-5-Acetyl-2-(((E)-1-(pyridin-2-yl)ethylidene)hydrazono)thiazolidin-4-one], the pIC50 was 5.61 at CDK2/cyclin A and 6.31 against GSK3β. For the same compound, the “Stronger inhibitory activity against CDK2/cyclin A compared with roscovitine” value on CDK2/cyclin A (from IC50 values of Table 2) is 1.3 fold. The “Vero (% inhibition)” value in assay [3] came to 44.24 ± 2.8%. The “Reduction in GSH content compared to untreated cells” value with HEp-2 cells [9] was 14%. Further, the “Increase of NOx level compared to untreated cells” value with HEp-2 cells [10] is recorded as 19%. Besides, the IC50 in [7] was 5.9 µg/mL (≈ 21.4 µM). The “HEp-2 (% inhibition)” value in assay [7] stood at 78.67 ± 2.5%.

Regarding `C/C(=N\N=C1/NC(=O)/C(=C\c2ccc(Cl)cc2)S1)c1ccccn1` [10a, (E)-5-((E)-4-Chlorobenzylidene)-2-(((E)-1-(pyridin-2-yl)ethylidene)hydrazono)thiazolidin-4-one], the “MCF-7 (% inhibition)” value in assay [8] was determined as 71.32 ± 3.4%.

`C/C(=N\N=C1/NC(=O)C(C)S1)c1ccccn1` (stereo not shown) [7a, (E)-5-Methyl-2-(((E)-1-(pyridin-2-yl)ethylidene)hydrazono)thiazolidin-4-one]: in assay [8], the “MCF-7 (% inhibition)” value turned out to be 72.79 ± 1.3%.

For `CCn1c(C)c(C(C)=O)s/c1=N/N=C(\C)c1ccccn1` [3b, 1-((E)-3-Ethyl-4-methyl-2-(((E)-1-(pyridin-2-yl)ethylidene)hydrazono)-2,3-dihydrothiazol-5-yl)ethan-1-one], in assay [8], the “MCF-7 (% inhibition)” value stood at 73.52 ± 1.6%.
